The source of these data is PubChem BioAssay (NCI).

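Each compound was tested at five concentrations against cells in 96-well plates for 48 hours. The concentration for 50% growth inhibition is given as GI50. TGI marks complete inhibition of growth.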 Where only a bound is given, the exact number is not on record here.

Some test systems named below: EKVX NSCLC; LOX IMVI melanoma; MALME-3M melanoma; MCF7 breast; NCI/ADR-RES ovarian; OVCAR-8 ovarian; SF-539 CNS; SK-MEL-5 melanoma; SNB-19 CNS; SNB-75 CNS.
Common to all, as to assay: inhibition of tumour cell growth, NCI panel, 48 h

For `COC(=O)[C@]1(c2ccc(N(C)C)cc2OC)C[C@@H]2CCCN(CCc3c1[nH]c1ccccc31)C2`, the TGI with EKVX NSCLC is 52 µM; in the test with LOX IMVI melanoma, greater than 62.3 µM; in the test with MALME-3M melanoma it was 33.2 µM; with MCF7 breast, 30.7 µM; in the test with NCI/ADR-RES ovarian it was 35.8 µM; in the test with OVCAR-8 ovarian, 57.9 µM. The TGI with SF-539 CNS was 36.8 µM; in the test on SK-MEL-5 melanoma, 31.4 µM; with SNB-19 CNS it was greater than 100 µM; in the test on SNB-75 CNS it was 22.3 µM.

For the molecule `Cc1cc(OCCOCCC(F)(F)P(=O)(O)O)ccc1CCc1cnc2c(N)nc3cc(CCC(=O)O)ccc3c2c1`, the GI50 with EKVX NSCLC, with LOX IMVI melanoma, in the test on MALME-3M melanoma, in the test with MCF7 breast, in the test with NCI/ADR-RES ovarian and in the test with OVCAR-8 ovarian was greater than 100 µM in each case. For the same molecule, the GI50 with SF-539 CNS is greater than 100 µM; with SK-MEL-5 melanoma it was greater than 100 µM; in the test on SNB-19 CNS, greater than 100 µM; with SNB-75 CNS, 14 µM. The TGI in the test with EKVX NSCLC, with LOX IMVI melanoma, in the test with MALME-3M melanoma, in the test on MCF7 breast, in the test with NCI/ADR-RES ovarian and in the test on OVCAR-8 ovarian was greater than 100 µM throughout. For the same molecule, the TGI with SF-539 CNS, with SK-MEL-5 melanoma, with SNB-19 CNS and with SNB-75 CNS was greater than 100 µM in each case.

Consider `Cc1ccc(-c2cc[n+]3c(n2)oc2ccccc23)cc1`, for which the TGI in the test with EKVX NSCLC was 56.2 µM; in the test on LOX IMVI melanoma it was greater than 100 µM; in the test with MALME-3M melanoma, 29.1 µM; with MCF7 breast, greater than 100 µM; with NCI/ADR-RES ovarian it was greater than 100 µM; in the test on OVCAR-8 ovarian, 41.2 µM. The TGI was 58.6 µM with SF-539 CNS, greater than 100 µM with SNB-19 CNS and 65.3 µM in the test on SNB-75 CNS.

In the case of `Nc1ccc2ccc(N3CCNCC3)nc2n1`, the TGI with EKVX NSCLC, in the test with LOX IMVI melanoma, with MALME-3M melanoma, in the test on MCF7 breast, with NCI/ADR-RES ovarian and in the test on OVCAR-8 ovarian was greater than 100 µM each time. The TGI in the test with SF-539 CNS, in the test on SNB-19 CNS and in the test on SNB-75 CNS was greater than 100 µM each time.

Consider `CCC(CC)(CO)CNc1cc(Cl)nc(N)n1`, for which the TGI in the test on EKVX NSCLC, in the test with LOX IMVI melanoma, with MALME-3M melanoma, in the test on MCF7 breast, with NCI/ADR-RES ovarian and in the test with OVCAR-8 ovarian was greater than 100 µM in each case. Moreover, the TGI in the test on SF-539 CNS, in the test with SK-MEL-5 melanoma and with SNB-75 CNS was greater than 100 µM in each case.

For `C/C=C(\C)C(=O)O[C@@H]1CC(C)(C)CC2C3=CCC4[C@]56CC[C@](O)(OC5)C(C)(C)C6CC[C@@]4(C)C3(C)CC[C@]21C(=O)O` (stereo partly specified), the TGI with EKVX NSCLC, in the test on LOX IMVI melanoma, in the test with MALME-3M melanoma, in the test with MCF7 breast, with NCI/ADR-RES ovarian and in the test with OVCAR-8 ovarian was greater than 100 µM in each case. Besides, the TGI with SF-539 CNS, in the test with SK-MEL-5 melanoma and with SNB-19 CNS was greater than 100 µM each time.

Regarding `N/C(=N\Nc1ccc(Cl)cc1)c1cnccn1`, the TGI in the test on EKVX NSCLC, with LOX IMVI melanoma, in the test on MALME-3M melanoma, in the test with MCF7 breast, in the test with NCI/ADR-RES ovarian and with OVCAR-8 ovarian was greater than 100 µM throughout. Moreover, the TGI in the test on SK-MEL-5 melanoma was 54.6 µM; in the test on SNB-19 CNS it was greater than 100 µM; in the test on SNB-75 CNS, greater than 100 µM.

In the case of `C#C[C@@]1(O)CCCC2=CC3(CC[C@]21C)SCCS3`, the TGI with EKVX NSCLC, in the test on LOX IMVI melanoma, in the test on MALME-3M melanoma, in the test with MCF7 breast, with NCI/ADR-RES ovarian and in the test on OVCAR-8 ovarian was greater than 100 µM each time. Further, the TGI in the test on SF-539 CNS, in the test with SK-MEL-5 melanoma and in the test with SNB-19 CNS was greater than 100 µM in each case.

In the case of `Cn1c2ccccc2c2cc(N3CCCC3)c3c(c21)C(=O)N(c1ccccc1)C3=O`, the TGI with EKVX NSCLC, in the test with LOX IMVI melanoma, in the test on MALME-3M melanoma, with MCF7 breast, with NCI/ADR-RES ovarian and in the test on OVCAR-8 ovarian was greater than 100 µM in each case. Further, the TGI in the test on SK-MEL-5 melanoma, in the test with SNB-19 CNS and with SNB-75 CNS was greater than 100 µM in each case.

On to `O=C(c1cccs1)N1CCCN(C(=O)c2cccs2)C1=S`, for which the TGI in the test on EKVX NSCLC, in the test with LOX IMVI melanoma, in the test with MALME-3M melanoma, in the test with MCF7 breast, with NCI/ADR-RES ovarian and in the test on OVCAR-8 ovarian was greater than 100 µM throughout. The TGI with SF-539 CNS, in the test on SK-MEL-5 melanoma and with SNB-19 CNS was greater than 100 µM in each case.

Regarding `COc1ccc2c(c1)NC1(CCN(CCCC(=O)c3ccc(F)cc3)CC1)N=N2`, the TGI is greater than 100 µM with EKVX NSCLC; 35.3 µM in the test with LOX IMVI melanoma; 30.6 µM with MALME-3M melanoma; 40.5 µM in the test on MCF7 breast; greater than 100 µM in the test with NCI/ADR-RES ovarian; 35.9 µM in the test on SF-539 CNS. In addition, the TGI with SK-MEL-5 melanoma is 25.3 µM; in the test on SNB-19 CNS it was greater than 100 µM; in the test on SNB-75 CNS it was 39.8 µM.
